Where a name gives a salt, the structure may show the parent alone.
Key:
[1] = tested on: dogs; assay: cardiovascular action in anesthetized dogs; assay type: in vivo, dog
Protocol: Four dogs (average weight: 13.8 kg), anesthetized with nembutal, receive CRL 41 220 by intraduodenal administration at successive doses of 0.1 mg/kg, 0.5 mg/kg, 1 mg/kg, 2.5 mg/kg, 5 mg/kg and 10 mg/kg. The blood pressure, the heart beat, the flow rate through the femoral artery, the flow rate through the vertebral artery and the rectal and/or skin temperature are measured and the coloration of the skin and the bile (collected by catheterization of the bile duct after ligature of the cystic duct) is observed.

[2] = tested on: immunological properties; assay: immunological properties, overall; assay type: in vivo; conditions: dose not stated
From the text: The present 1-(acetylaminophenyl)-2-aminopropanone derivatives are useful in therapy. They all act on the CNS, more precisely as antidepressants. They have a stimulant or excitant component in their neuropsychopharmacological profile.

[3] = tested on: spleen cells expressing a direct IgM antibody response; assay: test for cells forming lysis areas (PFC IgM, Cunningham); assay type: in vivo, mouse; conditions: dose not stated
Protocol: Immunological assays were carried out in order to point out the interest of CRL 41 240 as an immunomodulating agent. Specifically, the test used was the so-called test for cells forming lysis areas, described by A. J. […] et al. ("Further improvements in the plaque technique for detecting simple antibody forming cells"), Immunology 14, pages 599-601 (1968).
The test for cells forming lysis areas (or PFC IgM) explores the humoral immunity. Four days after immunization with a T-dependent antigen (in this case red blood corpuscles of sheep), the spleen cells expressing a direct IgM antibody response are counted. The mice used for this purpose are conventional female OF1 mice devoid of specific pathogenic organisms, weighing from 20 to 30 g and divided up into a control group of 14 animals and groups each containing 7 animals per dose and per product to be studied, administered orally on the same day as the antigen. An activity index I is calculated for each dose of product according to the following equation: [formula]
This test is performed at least twice for each dose of test product [C(control amimals), 0.01, 0.1, 10 and 100 mg/kg] and a statistical study is undertaken using the Student t test after variance analysis on the number of lyses per spleen.

[4] = tested on: delayed hypersensitivity to the red blood corpuscles of sheep; assay: delayed hypersensitivity to the red blood corpuscles of sheep (Miller); assay type: in vivo; conditions: dose not stated
[5] = acute toxicity, intraperitoneal (lethal doses); assay type: in vivo, mouse; conditions: mouse, in vivo, ip; male mice
Protocol: (§1) By intraperitoneal administration to male mice, the LD-30 (lethal dose for 30% of the animals tested) is of the order of 128 mg/kg and the LD-50 is of the order of about 200 mg/kg.

[6] = tested on: male mice; assay: acute toxicity, intraperitoneal (lethal doses); assay type: in vivo, mouse; conditions: i.p.
Protocol: as §1

[7] = tested on: CNS; assay: overall neuropsychopharmacological (CNS) profile; assay type: in vivo, mouse; rat; conditions: i.p., mice and rats; dose not stated
Protocol: The neuropsychopharmacological study of CRL 41 219 was carried out as indicated above for CRL 41 224.
The neuropsychopharmacological study of CRL 41 220 was carried out in accordance with the procedures given above for CRL 41 224.

[8] = tested on: LEWIS' carcinoma; assay: LEWIS' carcinoma in mice; assay type: in vivo, mouse
Protocol: a. animals: consanguineous female mice (C57 BL6), b. infecting cells: 10^5 cells injected subcutaneously into the back of the animals, c. monitoring of the tumor growth by measurement of the tumor twice a week, d. evaluation of the pulmonary metastases after fixation of the lungs of the dead animals in BOUIN's fixative.
Using the same procedures, the association of CRL 41 220 with 150 mg/kg of cyclophosphamide gives the results collated in Table II below.

[9] = tested on: man; assay: clinical trials; assay type: in vivo, human; conditions: man, oral, 250 to 500 mg
[10] = dogs, after accumulated 19.1 mg/kg intraduodenal
[11] = dogs, after intraduodenal CRL 41 220
[12] = CRL 41 220 2 mg/kg + cyclophosphamide 150 mg/kg

## CC(=O)Nc1c(Cl)cc(C(=O)C(C)NC(C)C)cc1Cl (stereo not shown) [CRL 41 220, 1-(4-acetylamino-3,5-dichlorophenyl)-2-isopropylaminopropanone hydrochloride]
[1]; 4 dogs, intraduodenal
  respiratory stimulation: induces respiratory stimulation in the 4 dogs
[1]; [10]
  diastolic blood pressure before isoprenaline: 112 mm Hg
  diastolic blood pressure with 10 μg/kg of isoprenaline: 47 mm Hg
  effect of isoprenaline on the diastolic blood pressure after CRL 41 220: very slightly modified as regards the diastolic blood pressure
  effect of isoprenaline on the heart beat after CRL 41 220: not modified as regards the heart beat
  heart beat before isoprenaline: 221 beats/minute
  heart beat with 10 μg/kg of isoprenaline: 275 beats/minute
[1]; [11]
  effect of 1 mg/kg of propanolol at the end of the test: suppresses all the effects of CRL 41 220
  systolic blood pressure before noradrenaline: 202 mm Hg
  systolic blood pressure with 2 μg/kg of noradrenaline: 272 mm Hg
[1]; dogs, after intraduodenal CRL 41 220, noradrenaline 2 μg/kg
  hypertension induced by noradrenaline: hypertension induced by noradrenaline is reduced
[1]; dogs, intraduodenal
  overall cardiovascular action: acts as a hypotensive agent
  rectal and skin temperatures: increases the rectal and skin temperatures
[1]; dogs, intraduodenal, 1 mg/kg
  femoral flow rate: increases the vertebral flow rate as from a dose of 0.5 mg/kg, the femoral flow rate
[1]; dogs, intraduodenal, 2.5 mg/kg
  heart beat: increases the vertebral flow rate as from a dose of 0.5 mg/kg, the femoral flow rate at a dose of 1 mg/kg and the heart beat
[1]; dogs, intraduodenal, 10 mg/kg
  hypotensive effect: hypotensive effect
[1]; dogs, intraduodenal, as from 0.5 mg/kg
  vertebral flow rate: increases the vertebral flow rate
[2]
  immunological properties, overall: beneficial immunomodulating effects
[3]
  immunomodulating activity, test for cells forming lysis areas: immunomodulating stimulant capacity
[4]
  immunomodulating activity, delayed hypersensitivity: immunomodulating stimulant capacity
[5]
  LD50: ~500 mg/kg
[6]
  LD-0 (maximum non-lethal dose): greater than 128 mg/kg
  LD-30: about 250 mg/kg
[7]
  overall action on the CNS: antidepressant and stimulant effects
[8]; [12]
  animals treated still being alive several weeks after the experiment: all
  protective action in respect of LEWIS' carcinoma: unquestionable protective
[8]; CRL 41 220 5 mg/kg + cyclophosphamide 150 mg/kg
  differences compared with cyclophosphamide used by itself: substantially few
[8]; CRL 41 220 100 mg/kg + cyclophosphamide 150 mg/kg
  toxicity of the association compared with cyclophosphamide used by itself: increase in the toxicity
[8]; female C57 BL6 mice, alone
  activity in LEWIS' carcinoma, used by itself: inactive
[8]; mice
  activity in the study of LEWIS' carcinoma, overall statement: active
[9]
  clinical result: circulatory disorders and insufficient immunoreaction (recurrent herpes, rheumatoid polyarthritis, severe measles): good results
